Laboratory results taken from EP0018155A2, “Novel cephalosporin compounds, a process for the preparation thereof, pharmaceutical compositions containing the same and the use thereof as a therapeutic agent against a microorganism” (NOVO NORDISK A/S, priority 1979, dated 1980).
Values after ≈ are worked out from the molar mass of the structure shown. Where two headings read alike, the source gives them in different places.

Columns and labels:
Format in all cases: cell-based
E. coli 01 = assay: agar serial dilution test (MIC)
Procedure: (§1) The antibiotic activity in vitro of some compounds according to the invention and of some previously known compounds was tested by means of an agar serial dilution test. The following compounds were tested: 7β-[2-(2-Aminothiazol-4-yl)-2-diethylphosphoryloxyiminoacetamido] cephalosporanic acid (designated ES 643, 7β-[2-(2-amino- thiazol-4-yl)-2-dimethylphosphoryloxyiminoacetamido] cephalosporanic acid (designated ES 671), 7β-[2-(2-amino- thiazol-4-yl)-2-dimorpholinophosphoryloxyiminoacetamido] cephalosporanic acid (designated ES 656), 7β-[2-(2-amino- thiazol-4-yl)-2-methylmethylphosphonyloxyiminoacetamido] cephalosporanic acid (designated ES 682), 7β-[2-(2-amino- thiazol-4-yl)-2-hydroxyiminoacetamido] cephalosporanic acid (designated A), cefuroxime (designated B), and cephalotin (designated C). MIC designates minimum inhibitory concentration.

E. coli 04 = assay: agar serial dilution test (MIC)
Procedure: as §1

K. edwardsii K1 = assay: agar serial dilution test (MIC)
Procedure: as §1

K. pneumoniae K8 = assay: agar serial dilution test (MIC); details: Klebsiella pneumoniae
Procedure: as §1

P. mirabilis 2255 = assay: agar serial dilution test (MIC)
Procedure: as §1

P. mirabilis 2311 = assay: agar serial dilution test (MIC)
Procedure: as §1

P. mirabilis 682 = assay: agar serial dilution test (MIC)
Procedure: as §1

P. morganii 18 = assay: agar serial dilution test (MIC)
Procedure: as §1

P. morganii 69 = assay: agar serial dilution test (MIC)
Procedure: as §1

P. vulgaris 16868 = assay: agar serial dilution test (MIC)
Procedure: as §1

P. vulgaris 17028 = assay: agar serial dilution test (MIC)
Procedure: as §1

P. vulgaris 5209 = assay: agar serial dilution test (MIC)
Procedure: as §1

S. albus 12228 = assay: agar serial dilution test (MIC)
Procedure: as §1

S. albus 3348 = assay: agar serial dilution test (MIC)
Procedure: as §1

S. albus 3578 = assay: agar serial dilution test (MIC)
Procedure: as §1

S. aureus 13709 = assay: agar serial dilution test (MIC)
Procedure: as §1

S. aureus 209P = assay: agar serial dilution test (MIC); details: Staphylococcus aureus
Procedure: as §1

S. aureus 3349 = assay: agar serial dilution test (MIC)
Procedure: as §1

S. aureus 3356 = assay: agar serial dilution test (MIC)
Procedure: as §1

S. pyogenes 12334 = assay: agar serial dilution test (MIC)
Procedure: as §1

S. pyogenes 12384 = assay: agar serial dilution test (MIC)
Procedure: as §1

P. vulgaris ATCC 6897 = assay: MIC value stated in Example 8; details: Proteus vulgaris, ATCC6897; against P. vulgaris ATCC 6897
[1] = Escherichia coli, E. coli 01, read-out: MIC value
[2] = Escherichia coli, E. coli 04, read-out: MIC value
[3] = K. edwardsii K1, read-out: MIC value
[4] = K. pneumoniae K8, read-out: MIC value
[5] = Proteus mirabilis, P. mirabilis 2255, read-out: MIC value
[6] = Proteus mirabilis, P. mirabilis 2311, read-out: MIC value
[7] = Proteus mirabilis, P. mirabilis 682, read-out: MIC value
[8] = Morganella morganii, P. morganii 18, read-out: MIC value
[9] = Morganella morganii, P. morganii 69, read-out: MIC value
[10] = Proteus vulgaris, P. vulgaris 16868, read-out: MIC value
[11] = Proteus vulgaris, P. vulgaris 17028, read-out: MIC value
[12] = Proteus vulgaris, P. vulgaris 5209, read-out: MIC value
[13] = Staphylococcus albus, S. albus 12228, read-out: MIC value
[14] = Staphylococcus albus, S. albus 3348, read-out: MIC value
[15] = Staphylococcus albus, S. albus 3578, read-out: MIC value
[16] = Staphylococcus aureus, S. aureus 13709, read-out: MIC value
[17] = S. aureus 209P, read-out: MIC value
[18] = Staphylococcus aureus, S. aureus 3349*, penicillin-resistant strain, read-out: MIC value
[19] = Staphylococcus aureus, S. aureus 3356*, penicillin-resistant strain, read-out: MIC value
[20] = Streptococcus pyogenes, S. pyogenes 12334, read-out: MIC value
[21] = Streptococcus pyogenes, S. pyogenes 12384, read-out: MIC value

SMILES: CC(=O)OCC1=C(C(=O)O)N2C(=O)C(NC(=O)C(=NO)c3csc(N)n3)C2SC1 (stereo not drawn) [A, 7β-[2-(2-amino-thiazol-4-yl)-2-hydroxyiminoacetamido] cephalosporanic acid, reference compound]
- MIC (E. coli 01; [1]): < 0.1 µg/mL
- MIC (E. coli 04; [2]): 0.2 µg/mL (≈ 0.453 µM)
- MIC (K. edwardsii K1; [3]): 0.2 µg/mL (≈ 0.453 µM)
- MIC (K. pneumoniae K8; [4]): 0.4 µg/mL (≈ 0.906 µM)
- MIC (P. mirabilis 2255; [5]): < 0.1 µg/mL
- MIC (P. mirabilis 2311; [6]): < 0.1 µg/mL
- MIC (P. mirabilis 682; [7]): < 0.1 µg/mL
- MIC (P. morganii 18; [8]): 0.2 µg/mL (≈ 0.453 µM)
- MIC (P. morganii 69; [9]): 0.2 µg/mL (≈ 0.453 µM)
- MIC (P. vulgaris 16868; [10]): 1.6 µg/mL (≈ 3.62 µM)
- MIC (P. vulgaris 17028; [11]): 0.8 µg/mL (≈ 1.81 µM)
- MIC (P. vulgaris 5209; [12]): 6.2 µg/mL (≈ 14 µM)
- MIC (S. albus 12228; [13]): 0.8 µg/mL (≈ 1.81 µM)
- MIC (S. albus 3348; [14]): 0.8 µg/mL (≈ 1.81 µM)
- MIC (S. albus 3578; [15]): 0.8 µg/mL (≈ 1.81 µM)
- MIC (S. aureus 13709; [16]): 1.6 µg/mL (≈ 3.62 µM)
- MIC (S. aureus 209P; [17]): 1.6 µg/mL (≈ 3.62 µM)
- MIC (S. aureus 3349; [18]): 1.6 µg/mL (≈ 3.62 µM)
- MIC (S. aureus 3356; [19]): 0.8 µg/mL (≈ 1.81 µM)
- MIC (S. pyogenes 12334; [20]): < 0.1 µg/mL
- MIC (S. pyogenes 12384; [21]): < 0.1 µg/mL

SMILES: CO/N=C(\C(=O)N[C@@H]1C(=O)N2C(C(=O)O)=C(COC(N)=O)CS[C@H]12)c1ccco1 [B, cefuroxime, reference compound]
- MIC (E. coli 01; [1]): 3.1 µg/mL (≈ 7.3 µM)
- MIC (E. coli 04; [2]): 6.2 µg/mL (≈ 14.6 µM)
- MIC (K. edwardsii K1; [3]): 6.2 µg/mL (≈ 14.6 µM)
- MIC (K. pneumoniae K8; [4]): 12.5 µg/mL (≈ 29.5 µM)
- MIC (P. mirabilis 2255; [5]): 1.6 µg/mL (≈ 3.77 µM)
- MIC (P. mirabilis 2311; [6]): 0.8 µg/mL (≈ 1.89 µM)
- MIC (P. mirabilis 682; [7]): 3.1 µg/mL (≈ 7.3 µM)
- MIC (P. morganii 18; [8]): 25 µg/mL (≈ 58.9 µM)
- MIC (P. morganii 69; [9]): 25 µg/mL (≈ 58.9 µM)
- MIC (P. vulgaris 16868; [10]): > 100 µg/mL
- MIC (P. vulgaris 17028; [11]): > 100 µg/mL
- MIC (P. vulgaris 5209; [12]): > 100 µg/mL
- MIC (S. albus 12228; [13]): 0.4 µg/mL (≈ 0.943 µM)
- MIC (S. albus 3348; [14]): 0.2 µg/mL (≈ 0.471 µM)
- MIC (S. albus 3578; [15]): 0.2 µg/mL (≈ 0.471 µM)
- MIC (S. aureus 13709; [16]): 0.8 µg/mL (≈ 1.89 µM)
- MIC (S. aureus 209P; [17]): 1.6 µg/mL (≈ 3.77 µM)
- MIC (S. aureus 3349; [18]): 0.8 µg/mL (≈ 1.89 µM)
- MIC (S. aureus 3356; [19]): 0.8 µg/mL (≈ 1.89 µM)
- MIC (S. pyogenes 12334; [20]): < 0.1 µg/mL
- MIC (S. pyogenes 12384; [21]): < 0.1 µg/mL

SMILES: COP(=O)(OC)ON=C(C(=O)NC1C(=O)N2C(C(=O)O)=C(COC(C)=O)CSC12)c1csc(N)n1 (stereo not drawn) [ES 671, 7β-[2-(2-amino-thiazol-4-yl)-2-dimethylphosphoryloxyiminoacetamido] cephalosporanic acid]
- MIC (E. coli 01; Escherichia coli, 01, read-out: MIC value in μg/ml): 0.2 µg/mL (≈ 0.364 µM)
- MIC (E. coli 04; Escherichia coli, 04, read-out: MIC value in μg/ml): 0.4 µg/mL (≈ 0.728 µM)
- MIC (K. edwardsii K1; read-out: MIC value in μg/ml): 0.2 µg/mL (≈ 0.364 µM)
- MIC (K. pneumoniae K8; K8, read-out: MIC value in μg/ml): 0.4 µg/mL (≈ 0.728 µM)
- MIC (P. mirabilis 2255; Proteus mirabilis, 2255, read-out: MIC value in μg/ml): 0.1 µg/mL (≈ 0.182 µM)
- MIC (P. mirabilis 2311; Proteus mirabilis, 2311, read-out: MIC value in μg/ml): < 0.1 µg/mL
- MIC (P. mirabilis 682; Proteus mirabilis, 682, read-out: MIC value in μg/ml): < 0.1 µg/mL
- MIC (P. morganii 18; Morganella morganii, 18, read-out: MIC value in μg/ml): < 0.1 µg/mL
- MIC (P. morganii 69; Morganella morganii, 69, read-out: MIC value in μg/ml): 0.4 µg/mL (≈ 0.728 µM)
- MIC (P. vulgaris 16868; Proteus vulgaris, 16868, read-out: MIC value in μg/ml): < 0.1 µg/mL
- MIC (P. vulgaris 17028; Proteus vulgaris, 17028, read-out: MIC value in μg/ml): < 0.1 µg/mL
- MIC (P. vulgaris 5209; Proteus vulgaris, 5209, read-out: MIC value in μg/ml): 0.2 µg/mL (≈ 0.364 µM)
- MIC (S. albus 12228; Staphylococcus albus, 12228, read-out: MIC value in μg/ml): 0.4 µg/mL (≈ 0.728 µM)
- MIC (S. albus 3348; Staphylococcus albus, 3348, read-out: MIC value in μg/ml): 0.8 µg/mL (≈ 1.46 µM)
- MIC (S. albus 3578; Staphylococcus albus, 3578, read-out: MIC value in μg/ml): 0.8 µg/mL (≈ 1.46 µM)
- MIC (S. aureus 13709; Staphylococcus aureus, 13709, read-out: MIC value in μg/ml): 1.6 µg/mL (≈ 2.91 µM)
- MIC (S. aureus 209P; 209P, read-out: MIC value in μg/ml): 3.1 µg/mL (≈ 5.64 µM)
- MIC (S. aureus 3349; Staphylococcus aureus, 3349, read-out: MIC value in μg/ml): 1.6 µg/mL (≈ 2.91 µM)
- MIC (S. aureus 3356; Staphylococcus aureus, 3356, read-out: MIC value in μg/ml): 1.6 µg/mL (≈ 2.91 µM)
- MIC (S. pyogenes 12334; Streptococcus pyogenes, 12334, read-out: MIC value in μg/ml): < 0.1 µg/mL
- MIC (S. pyogenes 12384; Streptococcus pyogenes, 12384, read-out: MIC value in μg/ml): < 0.1 µg/mL

SMILES: COP(=O)(O)ON=C(C(=O)NC1C(=O)N2C(C(=O)O)=C(COC(C)=O)CSC12)c1csc(N)n1 (stereo not shown) [Example 8b]
- MIC (P. vulgaris ATCC 6897): 0.2 µg/mL (≈ 0.374 µM)
